# Molecular target: T1, GECFINDER-Phe3 (Aneurinibacillus migulanus, UniProt P0C061)
# T1 construct: gene grsA; GrsA-PheA-PCP; cpEGFP inserted in hinge B, linkers VF-QS
# T1 sequence (P0C061 1-617): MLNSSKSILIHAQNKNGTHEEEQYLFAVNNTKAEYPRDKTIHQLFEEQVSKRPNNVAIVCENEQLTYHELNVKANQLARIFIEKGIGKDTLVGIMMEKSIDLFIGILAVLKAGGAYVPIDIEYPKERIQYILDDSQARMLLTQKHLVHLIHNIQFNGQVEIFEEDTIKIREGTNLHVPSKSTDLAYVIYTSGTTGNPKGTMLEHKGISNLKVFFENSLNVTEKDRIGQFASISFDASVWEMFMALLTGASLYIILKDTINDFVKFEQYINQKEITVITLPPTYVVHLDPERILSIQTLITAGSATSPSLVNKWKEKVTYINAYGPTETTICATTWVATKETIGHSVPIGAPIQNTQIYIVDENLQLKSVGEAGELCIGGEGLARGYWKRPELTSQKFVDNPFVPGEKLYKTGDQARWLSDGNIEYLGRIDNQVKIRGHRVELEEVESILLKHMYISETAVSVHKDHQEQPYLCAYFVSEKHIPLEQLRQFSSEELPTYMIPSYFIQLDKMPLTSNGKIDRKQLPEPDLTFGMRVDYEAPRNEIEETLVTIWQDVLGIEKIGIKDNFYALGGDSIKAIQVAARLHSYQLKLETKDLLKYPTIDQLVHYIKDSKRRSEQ
# Test: Fluorescence dose-response of purified […]-Phe3 with phenylalanine in 100 mM Tris at pH 6.5, room temperature, 1 mM ATP, 2.5 mM MgCl2.
# Format: biochemical
# Conditions: n = 3
# From the text: As cpEGFP is sensitive to pH, we conducted a dose-response curve and fluorescence intensity analysis of […]-Phe3 at varying pH levels. […] In addition, we expanded the range of ligand-binding domains (LBDs) applicable to […] and attempted optimization of insertion sites for cpEGFP with limited success. Please refer to Supplemental Note 1 for detailed information.
# The study conducted dose–response curve, substrate specificity, and fluorescent spectrum analyses in 100-mM Tris buffer (pH = 7.5), while pH stability experiments were performed in 100-mM Tris buffer at three different pH values (6.5, 7.5, and 8.5) at room temperature. […] Fluorescent signals were detected using a Microplate Reader (Synergy H4, Bio Tek) at an excitation/emission wavelength of 460 nm/510 nm or 480 nm/510 nm. The dose-response curve was determined immediately after the addition of the analyte. The total duration of the measurement was 15 min, with readings taken at one-minute intervals. The dose-response curve was plotted using the fluorescence values obtained after achieving stability in the fluorescence signal. […] The thermal stability of […] was analyzed using the UNcle multifunctional protein stability analysis system. […] Absolute fluorescence quantum yields were measured using an absolute photoluminescence quantum yield spectrometer (FS5, Edinburgh). […]
compound,measurement,value
"N[C@@H](Cc1ccccc1)C(=O)O [Phe, phenylalanine]",EC50,2.03 µM

# — article PMC10590383, “Repurposing conformational changes in ANL superfamily enzymes to rapidly generate biosensors for organic and amino acids” (Nature Communications, 2023)
